The nature of series [1]: Partition coefficient of the unprotonated free amine (logP). It counts as physicochemical. The following applies: octanol/water.
Series [2] can be described thus: Biodistribution after 1 hour of postinjection in blood. It counts as ADME, organism-based. The following applies: in vivo.
Series [3] can be described thus: Biodistribution after 1 hour of postinjection in brain. Type of series: ADME, organism-based. As to conditions: in vivo.
Series [4] can be described thus: Biodistribution after 1 hour of postinjection in heart. It counts as ADME, organism-based. The following applies: in vivo.
Series [5] is described as follows: Biodistribution after 1 hour of postinjection in kidney. It counts as ADME, organism-based. The following applies: in vivo.
Series [6] is described as follows: Biodistribution after 1 hour of postinjection in liver. It counts as ADME, organism-based. The following applies: in vivo.
A short description of series [7]: Biodistribution after 1 hour of postinjection in lungs. Type of series: ADME, organism-based, Lung. The following applies: in vivo.
The nature of series [8]: Biodistribution after 1 hour of postinjection in melanoma. It counts as ADME, organism-based. As to conditions: in vivo.
The nature of series [9]: Biodistribution after 1 hour of postinjection in spleen. Type of series: ADME, organism-based. The following applies: in vivo.
A short description of series [10]: Biodistribution after 6 hours of postinjection in brain. It counts as ADME, organism-based. As to conditions: in vivo.
A short description of series [11]: Biodistribution after 6 hours of postinjection in heart. It counts as ADME, organism-based. The following applies: in vivo.
Series [12] is described as follows: Biodistribution after 6 hours of postinjection in kidney. It counts as ADME, organism-based. The following applies: in vivo.
Series [13] is described as follows: Biodistribution after 6 hours of postinjection in liver. As to conditions: in vivo. It counts as ADME, organism-based.
The nature of series [14]: Biodistribution after 6 hours of postinjection in lungs. It counts as ADME, organism-based, Lung. As to conditions: in vivo.
Series [15] is described as follows: Biodistribution after 6 hours of postinjection in melanoma. Type of series: ADME, organism-based. The following applies: in vivo.
A short description of series [16]: Biodistribution after 6 hours of postinjection in spleen. Type of series: ADME, organism-based. As to conditions: in vivo.
Series [17] is described as follows: Partition coefficient (logD7.4). Type of series: physicochemical. As to conditions: octanol/water, pH 7.4.
Series [18] is described as follows: Biodistribution after 1 hour of postinjection in melanoma/blood. Type of series: ADME, organism-based. As to conditions: in vivo.
Series [19] in a line: Biodistribution after 1 hour of postinjection in melanoma/lungs. The following applies: in vivo. Type of series: ADME, organism-based, Lung.
Series [20] can be described thus: Biodistribution after 6 hours of postinjection in melanoma/blood. As to conditions: in vivo. It counts as ADME, organism-based.
Series [21] is described as follows: Biodistribution after 6 hours of postinjection in melanoma/lungs. It counts as ADME, organism-based, Lung. As to conditions: in vivo.
Series [22] can be described thus: Biodistribution after 6 hours of postinjection in melanoma/spleen. It counts as ADME, organism-based. As to conditions: in vivo.
A short description of series [23]: aqueous ionization constant (pKa) determined by HPLC methods. Type of series: physicochemical. As to conditions: buffer.
A short description of series [24]: Biodistribution after 1 hour of postinjection in muscle. Type of series: ADME, organism-based, Muscle tissue. As to conditions: in vivo.
Series [25] is described as follows: Biodistribution after 6 hours of postinjection in blood. As to conditions: in vivo. It counts as ADME, organism-based.
Series [26] can be described thus: Biodistribution after 1 hour of postinjection in melanoma/spleen. It counts as ADME, organism-based. As to conditions: in vivo.
Series [27] is described as follows: Biodistribution after 6 hours of postinjection in muscle. Type of series: ADME, organism-based, Muscle tissue. As to conditions: in vivo.
The nature of series [28]: Biodistribution after 1 hour of postinjection in melanoma/liver. It counts as ADME, organism-based. The following applies: in vivo.
Series [29] is described as follows: Biodistribution after 6 hours of postinjection in melanoma/liver. It counts as ADME, organism-based. As to conditions: in vivo.

A value given as a limit tells only on which side of the number the result lay.

Usually logP stands for the decadic logarithm of the partition coefficient of the neutral form, usually between octanol and water. A low value points to lower lipophilicity. For orientation: pKa means the pH at which an ionisable group is half protonated. “N-methyl-3-azapentane-1,5-dithiol complex [listing 1 of 6 here]” returned a lipophilicity (logP) in series [1] of 1.2. The ID/g in [2] was found to be 2.36%; in [3], 0.64%; in series [4], 1.26%; in series [5], 19.4%; in series [6], 4.02%; in series [7], 5.75%. The ID/g in [8] was 2.16%; in series [9] it was 5.57%; in series [10] it was 0.26%; in series [11] it was 0.83%; in [12], 11.3%; in series [13], 1.53%. The ID/g came out at 2.91% in series [14], 1.53% in [15] and 2.91% in series [16]. Moreover, the logD in series [17] is reported as 1 pH7.4. Also, the Ratio in series [18] is listed as under 1; in series [19], under 1; in series [20], 1.1; in series [21], under 1; in [22], 1. For the same substance, the pKa in series [23] amounted to 7.2.
“N-methyl-3-azapentane-1,5-dithiol complex [listing 2 of 6 here]”: in series [1], the logP was found to be 3.5. Moreover, the ID/g in series [2] was found to be 1.26%; in series [3], 0.08%; in [4], 0.66%; in [5], 30.4%; in series [6], 43.3%; in [7], 2.6%. Besides, the ID/g in [8] turned out to be 4.95%; in series [24], 0.24%; in series [9], 1.15%; in series [25] it was 0.98%; in [11] it was 0.46%; in series [12] it was 19.3%. Besides, the ID/g in series [13] is on record as 23%; in [14], 1.35%; in [15], 4.12%; in [16], 1.3%; in series [27], 0.2%. Besides, the Ratio in series [18] is 3.9; in series [19], 1.9; in series [26], 4.3; in series [20] it was 4.2; in series [21] it was 3.1; in [22], 3.2.
Consider “N-methyl-3-azapentane-1,5-dithiol complex [listing 3 of 6 here]”, for which the logP in series [1] was 3.7. The ID/g came out at 1.34% in [2]; 0.13% in [3]; 1.17% in series [4]; 15.3% in series [5]; 35.3% in series [6]; 3.27% in [7]. The ID/g in [8] was 3.26%; in series [24] it was 0.53%; in [9] it was 3.35%; in series [25] it was 1.44%; in series [10] it was 0.08%; in series [11], 0.73%. Moreover, the ID/g was 11.7% in series [12]; 17.7% in series [13]; 2.07% in series [14]; 3.23% in series [15]; 1.25% in series [16]; 0.26% in [27]. Also, the logD in [17] amounted to 1.1 pH7.4. The Ratio in series [18] is given as 2.4; in series [28], under 1; in series [19], 1; in series [26] it was under 1; in [20], 2.2; in [29], under 1. Further, the Ratio in series [21] is on record as 1.6; in series [22], 2.6. Besides, in [23], the pKa came out at 9.9.
As for “N-methyl-3-azapentane-1,5-dithiol complex [listing 4 of 6 here]”, the logP in series [1] is 1.7. Also, the ID/g in series [2] is recorded as 2.08%; in [3] it was 0.18%; in [4], 1.84%; in [5], 17.9%; in [6], 27.3%; in series [7], 2.73%. Moreover, the ID/g in series [8] turned out to be 3.23%; in series [24], 0.57%; in series [9] it was 3.44%; in series [25], 1.35%; in series [10], 0.14%; in series [11] it was 0.84%. The ID/g in series [12] is reported as 17.9%; in series [13], 18.7%; in series [14] it was 1.96%; in series [15] it was 3.13%; in [16], 0.7%; in [27] it was 0.39%. In addition, the logD in [17] stood at 0 pH7.4. Also, the Ratio stood at 1.6 in series [18]; 4.5 in series [19]; 2.3 in [20]; 1.2 in [21]; 4.5 in series [22]. The substance further gave a pKa in [23] of 9.7.
“N-methyl-3-azapentane-1,5-dithiol complex [listing 5 of 6 here]” registered a lipophilicity (logP) in series [1] of 2.7. Also, the ID/g stood at 3.49% in [2]; 0.24% in series [3]; 1.74% in series [4]; 13% in series [5]; 7.11% in series [6]; 5.73% in series [7]. The ID/g in series [8] was found to be 2.55%; in series [24] it was 0.78%; in series [9], 2.39%; in [25] it was 2.05%; in [11] it was 1.15%; in series [12], 10.1%. In addition, the ID/g in series [13] was found to be 6.1%; in series [14], 3.4%; in [15] it was 2.83%; in series [16], 1.66%. The substance also gave a logD in series [17] of 1.6 pH7.4. The Ratio in series [26] is 1.1; in [20], 1.4; in [22], 1.7. In series [23], this substance showed a pKa of 8.3.
In [1], “N-methyl-3-azapentane-1,5-dithiol complex [listing 6 of 6 here]” showed a logP of 3.6. Besides, the ID/g in series [2] stood at 3.28%; in series [3] it was 0.32%; in series [4], 2.09%; in series [5] it was 24%; in series [6] it was 16.6%; in series [7], 13.2%. The ID/g is reported as 2.88% in [8]; 6.04% in series [9]; 1.3% in series [25]; 0.13% in series [10]; 0.86% in series [11]; 12.9% in series [12]. Further, the ID/g in [13] was 7.23%; in series [14], 5.5%; in series [15] it was 1.39%; in series [16] it was 1.44%. The logD in series [17] worked out at 0.95 pH7.4. Also, the Ratio in series [22] is under 1. In addition, the pKa in series [23] was 9.6.

(Values after ChEMBL document CHEMBL1133774, “'3+1' mixed-ligand oxotechnetium(V) complexes with affinity for melanoma: synthesis and evaluation in vitro and in vivo” (J Med Chem, 2000).)
